{
  "source": "paper PMC3565340",
  "about": "“Crystal Structure of Dimeric Flavodoxin from Desulfovibrio gigas Suggests a Potential Binding Region for the Electron-Transferring Partner” (International Journal of Molecular Sciences, 2013)",
  "target": "T1, Fld (flavodoxin from Desulfovibrio gigas) (Megalodesulfovibrio gigas, UniProt Q01095)",
  "T1 construct": "native, purified from anaerobically grown D. gigas cells; untagged; 146 residues, 15 kDa; residues 2-146 modelled; homodimer",
  "T1 sequence (Q01095 whole entry, the tested form may be a part)": "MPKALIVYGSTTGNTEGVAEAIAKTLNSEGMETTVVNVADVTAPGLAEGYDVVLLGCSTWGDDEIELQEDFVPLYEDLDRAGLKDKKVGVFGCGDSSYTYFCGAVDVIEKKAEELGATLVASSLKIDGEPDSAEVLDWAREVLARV",
  "assay": "X-ray crystal structure of the complex, […] Å",
  "format": "binding",
  "conditions": "non-covalently bound native cofactor, co-purified; crystals at pH 6.5 (bis-Tris, PEG550, CaCl2); semiquinone-like state",
  "data": [
    {"smiles": "Cc1cc2nc3c(=O)[nH]c(=O)nc-3n(C[C@H](O)[C@H](O)[C@H](O)COP(=O)(O)O)c2cc1C", "note": "[FMN, flavin mononucleotide]", "values": [
      {"measurement": "X-ray crystal structure of the complex, 1.3 Å", "result": "the position of FMN was well defined by the electron density"}
    ]}
  ]
}
